Biological target: T1, NLRP3 (Mus musculus, UniProt Q8R4B8)
T1 construct: endogenous NLRP3 in lysates of LPS-primed BMDMs
Test: DARTS (pronase protection) in BMDM lysates at […]
Type: cell-based

T1 sequence (Q8R4B8 whole entry): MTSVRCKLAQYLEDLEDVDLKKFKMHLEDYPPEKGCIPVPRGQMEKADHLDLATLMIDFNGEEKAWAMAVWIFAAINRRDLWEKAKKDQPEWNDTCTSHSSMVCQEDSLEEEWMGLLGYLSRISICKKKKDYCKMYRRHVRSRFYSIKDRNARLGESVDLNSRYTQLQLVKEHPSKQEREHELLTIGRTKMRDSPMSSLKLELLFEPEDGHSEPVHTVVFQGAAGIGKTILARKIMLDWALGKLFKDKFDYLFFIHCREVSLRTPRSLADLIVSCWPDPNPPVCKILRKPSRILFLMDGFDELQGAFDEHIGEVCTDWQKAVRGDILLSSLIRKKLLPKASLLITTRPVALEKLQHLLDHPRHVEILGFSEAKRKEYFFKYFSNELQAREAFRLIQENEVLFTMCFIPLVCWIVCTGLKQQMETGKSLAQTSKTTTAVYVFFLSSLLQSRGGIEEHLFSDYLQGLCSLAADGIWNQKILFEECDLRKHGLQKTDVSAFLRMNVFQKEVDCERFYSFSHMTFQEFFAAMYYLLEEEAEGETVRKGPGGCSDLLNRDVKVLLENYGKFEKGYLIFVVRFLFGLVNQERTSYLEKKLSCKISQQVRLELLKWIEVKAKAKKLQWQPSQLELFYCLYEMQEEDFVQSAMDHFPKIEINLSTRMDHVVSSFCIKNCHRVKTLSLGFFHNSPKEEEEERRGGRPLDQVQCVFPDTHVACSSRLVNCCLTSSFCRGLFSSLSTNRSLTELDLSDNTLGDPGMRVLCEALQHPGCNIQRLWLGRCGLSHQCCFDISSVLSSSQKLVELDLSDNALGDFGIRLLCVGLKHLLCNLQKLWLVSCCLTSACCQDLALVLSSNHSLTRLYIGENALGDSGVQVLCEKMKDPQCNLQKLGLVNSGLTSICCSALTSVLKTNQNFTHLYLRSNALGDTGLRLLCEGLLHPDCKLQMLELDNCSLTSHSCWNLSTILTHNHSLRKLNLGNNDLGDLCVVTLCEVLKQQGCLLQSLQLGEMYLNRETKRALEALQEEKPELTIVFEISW

SMILES: CC1=C(CC/C(C)=C/CCC2=CC[C@H](C3=CC(=O)O[C@H]3O)O[C@H]2O)C(C)(C)CCC1 [manoalide]
- DARTS (pronase protection) in BMDM lysates at 10 and 50 μM: Pronase-mediated degradation of NLRP3 is reversed in dose-dependent manner by manoalide.
